# In patent US8841269B2, “Polynucleotides for use in treating and diagnosing cancers” (Creighton University, priority 2010, dated 2014):
# Entries after “also recorded” stand apart in the source; their conditions may differ.
# Assays:
# [1] = system: ER-α negative MDA-MB-231 cell line; test: MTT cell proliferation assay in MDA-MB-231; assay type: cell-based, human; details: MDA-MB-231, DMEM with 10% FBS
# Description: FIG. 10. The effects of let-7a, let-7b, and let-7i miRNAs on cell proliferation in ER-α negative MDA-MB-231 cell line. Cancer cell proliferation was monitored by MTT assays in the same way as in MCF7 cell line except MDA-MB-231 cells were grown in DMEM with 10% FBS.
# (§1) MTT cell proliferation assay. MCF7 cells were transfected with let-7 mimics or negative controls (60 nmol/L) in normal growth medium for 1 day, or in medium with 2.5% charcoal-stripped FBS for 2 days to exhaust endogenous estrogen, following the protocol of siPORT NeoFX Transfection Agent (Applied Biosystems). For the experiment in normal growth medium, 10^4 cells in the volume of 100 μL were seeded in a 96-well plate for 12 hours and assay lasted for another 4 days. For experiments in E2 free medium, 1.5 10^4 cells were seeded in a 96-well plate for 12 hours and then exposed to 10 nmol/L E2, or not, for up to 4 days. For both experiments, each treatment had 12 replicates on the plate. The cells were then incubated in 0.83 mg/mL 3-[4,5-dimethylthiazol-2-yl]-2,5-diphenyltetrazolium bromide (MTT) in growth medium at 37° C. for 4 h and lysed in 100 μL of DMSO at room temperature for 15 min. The absorbance in each well was measured at 490 nm by an ELx800 Absorbance Microplate Reader (Biotek). Cell proliferation was normalized to day 0.
# cyclin D1 = test: Immunoblot of cyclin D1 after transfection in MCF7; assay type: cell-based, human; details: MCF7, mimics
# Description: (§2) Immunoblot analysis. For Western blot in FFPE tissues, an established method was followed (Addis et al., 2009, Proteomics 9:3815-23). For MCF7 cell line, let-7 mimics and negative control miRNA (60 nmol/L), or let-7 inhibitors and anti-miR negative control (60 nmol/L) were transfected following the protocol of siPORT NeoFX Transfection Agent (Applied Biosystems), The Western blot procedure was described before (Zhang et al., 2010, J Proteome Res., 9(2):980-989). Antibody information is as follows: ER-α, RB-9016-P1, Thermoscientific; Cyclin D1, sc-8396, Santa Cruz; pS2, ab80782 was Abeam; β-Actin, sc-69879, Santa Cruz.
# ER-α mRNA = test: Real-time PCR of ER-α mRNA after transfection in MCF7; assay type: cell-based, human; details: MCF7, mimics, after 6 days
# Description: For real-time PCR on the expression of ER-α, total RNA was extracted using Trizol reagent (Invitrogen). One microgram RNA was used for cDNA synthesis following the protocol of SuperScript III First-Strand Synthesis System (Invitrogen). After 10 times dilution, 4 μL cDNA was used in a 20 μL reaction volume, which included 4 μL of 1.5 μM primers, 2 μL of 2 μM probes, and 10 μL master mix (Applied Biosystems). β-actin was the internal control. The oligos for ER-α are: forward primer, 5′-GCGGCCACGGACCAT (SEQ ID NO:17); reverse primer, 5′-[…] (SEQ ID NO:18); probe, 5′-FAM-[…]-TAMRA (SEQ ID NO:19).
# (§3) For FFPE tissues, there was the same repeat number as in microarray; for cell lines, there were three biological repeats. Each sample had three technical repeats on the PCR plate. Real-time PCR was performed on an Applied Biosystems 7900HT real-time PCR instrument. PCR was initiated by two holds of 52° C. 2 min and 94° C. 10 min each, followed by 40 cycles of 15 s at 95° C. and 1 min at 60° C.
# [2] = Real-time PCR quantification of mature let-7 after mimic transfection in MCF7; assay type: cell-based, human; details: MCF7, relative quantity against RNU48
# Description: Quantitative real-time PCR. For miRNA quantification in FFPE tissues, total RNA was extracted as described above; for miRNA quantification in cell lines, total RNA was isolated using mirVana miRNA Isolation Kit (Ambion Inc.). cDNA was synthesized by using 100 ng total RNA in a reaction volume of 15 μL, by following the protocol of Taqman miRNA Reverse Transcription Kit (Applied Biosystems). After 15 times dilution, 9 μL cDNA was used for real-time PCR in a 20 μL reaction volume, including 10 μL of master mix and 1 μL Taqman probe (Applied Biosystems). This reaction system only detects mature miRNAs not pre-miRNAs. The level of each miRNA was expressed following the 2^−ΔΔCt or […] method using the small nuclear RNA, RNU48, as the internal reference.
# as §3
# [3] = system: 3′ UTR of human ER-α gene; test: Luciferase reporter assay, ER-α 3′ UTR let-7 binding site in pMIR-REPORT; assay type: cell-based; details: MCF7 cells
# Description: Luciferase assay. A fragment of the 3′ UTR of human ER-α gene, which contains the putative let-7 target sites, was synthesized (IDT technology). With attached SpeI and HindIII restriction sites, the fragments are 48 by long. The sense strand was 5′-[…] (SEQ ID NO:39) while the antisense strand was 5′-[…] (SEQ ID NO:40). The cloning and transfection followed previous protocol (Hu et al., 2009, J Immunol 183:1617-24). Sixty nanomolar let-7 mimics, anti-let-7 inhibitors, pre-miR negative control #1 (AM17110, Ambion), or anti-miR negative control #1 (AM17010, Ambion) were transfected together with a 0.25 μg luciferase construct and a 0.25 μg β-galactosidase plasmid, which were used as a normalization reference. After 24 hour post-transfection, the luciferase activity was measured in a Veritas Microplate Luminometer (Turner Biosystems). Every treatment had 3 replicates. The luciferase activity was expressed as a fraction of negative control.
# ER-α = test: Immunoblot of ER-α after transfection in MCF7; assay type: cell-based, human; details: MCF7, mimics 60 nmol/L
# Description: as §2
# MCF7 cells [4] = test: Annexin-V binding assay for apoptosis in MCF7; assay type: cell-based, human; details: MCF7, after either 3 days or 6 days
# Description: Annexin-V binding assay for apoptosis. […] The staining followed the protocol of FITC Annexin V Apoptosis Detection Kit I (Cat #556547, BD Biosciences). Cell populations were analyzed with a BD FACSAria™ flow cytometer. Approximately 20,000 cells were counted for each sample.
# [5] = system: estrogen response element (ERE) construct; test: ERE luciferase assay (2 ERE-tk-Luc), genomic estrogen pathway in MCF7; assay type: cell-based, human
# Description: For checking on the genomic estrogen pathway, 10^5 MCF7 cells were first seeded into each well on a 24-well plate and cultured in IMEM with 2.5% charcoal-stripped FBS for 2 days. Then the cells were transfected as described above except that the estrogen response element (ERE) construct (2 ERE-tk-Luc; obtained from Katarine Pettersson, Karolinska Institute, Stockholm) replaced the pMIR-REPORT plasmid for 1 day. After stimulation with 10 nmol/L E2 for 12 hours, luciferase activity was measured as described above.
# pS2 = test: Immunoblot of pS2 after transfection in MCF7; assay type: cell-based, human; details: MCF7, mimics
# Description: as §2
# MCF7 cells [6] = test: MTT cell proliferation assay in MCF7; assay type: cell-based, human
# Description: as §1
substance,measurement,setting,value
"let-7a: let-7a miRNA (mimic), 3′-UUGAUAUGUUGGAUGAUGGAGU-5′ (SEQ ID NO:7) (chemistry not given here; listed 3' to 5')",cell growth (MTT),[1],None of three miRNAs significantly inhibited cell growth
same,expression of cyclin D1 (protein),cyclin D1; after 2 days,significantly inhibited
same,protein expression of cyclin D1,cyclin D1; after 6 days,affected neither
same,ER-α mRNA expression,ER-α mRNA,relieved
same,rank of forced expression throughout the time course,[2],lowest expression
same,"luciferase activity, ER-α binding site in 3′UTR of luciferase","[3]; 60 nmol/L mimics, vs negative control miRNA",decreased the luciferase activity; also recorded: significantly inhibited the luciferase activity
same,"luciferase activity, mutated ER-α binding sequence",[3]; mutated sequence in 3′UTR of luciferase,abrogated the effects; also recorded: did not show inhibition
same,expression of ER-α (protein),ER-α; after 2 days,significantly depressed the expression of ER-α
same,expression of ER-α (protein),ER-α; after 6 days,modest effect
same,effect on apoptosis,MCF7 cells [4],not significant
same,ERE luciferase activity,"[5]; MCF7, p2 ERE-tk-Luc, 10 nmol/L E2 12 hours, p<0.01",about 60 % of negative control
same,luciferase activity of the ERE construct,[5]; MCF7 cell line,inhibit the luciferase activity of the ERE construct
same,expression of pS2 (protein),pS2; after 2 days,significantly inhibited
same,protein expression of pS2,pS2; after 6 days,affected neither
same,cell growth (MTT) with E2,"MCF7 cells [6]; MCF7, E2 free medium with addition of 10 nmol/L E2",least inhibition
same,cell growth (MTT),"MCF7 cells [6]; MCF7, E2 free medium with or without addition of 10 nmol/L E2 (FIG. 9B-D)",slightly inhibited
same,cell proliferation (MTT),"MCF7 cells [6]; MCF7, normal growth medium, 60 nmol/L",did not show a significant effect
